The source of these data is US7897340B2, “Use of tumor susceptibilty gene 101 (TSG 101) as a prognostic and diagnostic marker” (The Board of Regents of the University of Texas System, priority 2006, dated 2011).

Structures are written as SMILES.

In one experiment the test system is p14ARF. The settings on record: T29H cells.
In another experiment the test system is TSG101. Kind of experiment: TSG101 protein levels by immunoblotting in T29H cells. It is filed as cell-based, human. The settings on record: inhibitor pretreatment 24 hrs (FTI-277 10 μM, U0126 20 μM, LY294002 10 μM). An excerpt:
Antigen-antibody complexes were detected by enhanced chemiluminescence (Pierce).
On the technique in general: A western blot detects proteins with antibodies after separation by electrophoresis.

A further experiment has as its system RAS-GTP. The settings on record: T29H cells, data not shown.
The test system of the next experiment is TSG101 mRNA. Kind of experiment: TSG101 mRNA levels by semi-quantitative PCR in T29 and T29H cells. It is filed as cell-based, human. The settings on record: FTI-277 10 μM 24 hours. The method, then: Total RNA was isolated from cells using Trizol reagent (Invitrogen), and concentration was determined by absorbance at 260 nm. Real-Time PCR analysis was carried out using fluorescent TSG101 primers on an Applied Biosystems Prism 7000 Sequence Detection System. RT-PCR was carried out for TSG101 and HIF-1α using 1 μg of isolated total RNA under the following parameters: 94° C. 1 min, 57° C. 1 min and 72° C. 1.5 min, 35 cycles. Primers used for RT-PCR were TSG10 forward [NT] ID NO: 1), reverse [NT] ID NO: 2), CITED2 forward [NT] ID NO: 3), reverse [NT] ID NO: 4), HIF-1a ? forward [NT] ID NO: 5), reverse [NT] ID NO: 6). […] This up-regulation was further confirmed by immunoblotting analysis of equal amount of independent total protein lysates from pooled T29 and […] cells using an antibody specific to TSG101 (FIG. 1C). To check if the apparent increase in TSG101 protein was due to the transcriptional regulation of the TSG101 gene, the levels of TSG101 mRNA in T29 and […] cells were examined by semiquantitive (FIG. 1D) and real-time PCRs (FIG. 1E). […] Furthermore, the levels of TSG101 mRNA were not affected by FTI-277, a farnesyl transferase inhibitor that blocks the activation of RAS (FIG. 1D).

Protocol for RAS-GTP: SKOV-3 and T29H cells grown to 50% confluence in 10 cm plates were infected with H1 and H2 retroviral supernatants generated from Phoenix viral packaging cells. Following infection, cells were selected for 10 days in 0.7 mg/ml of G418 to establish stable cell lines. Raf-GTP binding assays and western blotting using anti-HRAS (1:2000, Santa Cruz) were used to measure the expression and activation levels of RAS proteins in these siRNA cell lines.
Protocol for p14ARF: Protein concentrations of cell lysates were assayed with the Bio-Rad protein assay reagent. Equal amounts of protein were loaded onto 12% SDS polyacrylamide mini-gels (Bio-Rad) or 10% Tricine-SDS gels and transferred to PVDF membranes. PVDF blots and the remaining polyacrylamide gels were stained with Ponceau S and Coomassie Blue, respectively, to ensure equal loading and even transfer of the samples. After being blocked overnight in 5% milk in TBS-Tween, blots were incubated with corresponding primary antibodies for 1.5 hrs, followed by HRP-conjugated secondary antibody (1:4000, Bio-Rad) for 45 min. Antigen-antibody complexes were detected by enhanced chemiluminescence (Pierce).

Regarding `N#CC(=C(/N)Sc1ccccc1N)/C(C#N)=C(\N)Sc1ccccc1N` [U0126], in the experiment on p14ARF, the “cellular level of p14ARF” value is listed as “suppressed”. The TSG101 protein levels entry in the experiment on TSG101 is given as “significantly decreased”.

Consider `COC(=O)[C@H](CCSC)NC(=O)c1ccc(NC[C@@H](N)CS)cc1-c1ccccc1` [FTI-277], for which, in the experiment with RAS-GTP, the RAS-GTP levels result is given as “significantly inhibited”. In the experiment with TSG101, the TSG101 protein levels entry is “significant decrease”. In the experiment with TSG101 mRNA, the “levels of TSG101 mRNA” value is reported as “not affected”.
